Data published in US10562893B2, “Benzimidazoles derivatives as Tec kinases family inhibitors” (GB005, Inc., priority 2015, dated 2020).

Tests used:
Human PBMCs = assay: CD3/CD28 mediated PBMC proliferation assay; type: cell-based; details: proliferation of human PBMCs stimulated with anti-CD3 and anti-CD28, 72 hours, Cell Titer-Glo
Experimental: Inhibition of cellular ITK was assessed by measuring proliferation of PBMCs following stimulation with anti-CD3 and anti-CD28 antibodies. Individual wells of 96 well tissue culture plates were coated with 50 μL of 5 μg/mL anti-CD3 (OKT3, eBiosciences) for 2 hours at 37° C. Human PBMCs (Stemcell Technologies catalog #70025.3) were plated in 96-well plates at a final concentration of 9.2×10e5 cells/mL in complete media (RPMI, 10% heat inactivated FBS, 55 uM β-mercaptoethanol) and pre-treated with compound curves for 30 minutes at 37° C., 5% CO2. Pre-treated cells plus compounds were transferred to washed anti-CD3 coated plates. Soluble anti-CD28 (CD28.2 eBiosciences) was added to each well at a final concentration of 2 μg/mL. The cells were placed in a humidified 37° C. incubator with 5% CO2 for 72 hours and metabolic viability was measured by quantification of ATP levels with Cell Titer-Glo (Promega catalog # G9242). Controls included unstimulated cells and vehicle alone. EC50 values (50% proliferation in the presence of compound as compared to vehicle treated controls) were calculated from dose response compound curves using GraphPad Prism Software.

[1] = system: Jurkat human acute T cell leukemia cells; assay: Jurkat IL-2 release assay; type: cell-based; details: IL-2 release from Jurkat cells stimulated with anti-CD3 and anti-CD28, 48 hours, ELISA
Experimental: Inhibition of cellular ITK was assessed by measuring release of IL-2 following stimulation with anti-CD3 and anti-CD28 antibodies. Individual wells of 96 well tissue culture plates were coated with 50 μL of 10 μg/mL anti-CD3 (OKT3, eBiosciences) for 2 hours at 37° C. Jurkat human acute T cell leukemia cells (ATCC) were plated in 96-well plates at a final concentration of 9.2×10e5 cells/mL in complete media (RPMI, 10% FBS, 1.5 g/L sodium bicarbonate, 10 mM Hepes, 1 mM sodium pyruvate, 4.5 g/L glucose) and pre-treated with compound curves for 30 minutes at 37° C., 5% CO2. Pre-treated cells plus compounds were transferred to washed anti-CD3 coated plates. Soluble anti-CD28 (CD28.2 eBiosciences) was added to each well at a final concentration of 1 μg/mL. The cells were placed in a humidified 37° C. incubator with 5% CO2 for 48 hours and IL-2 release was measured using a commercial ELISA (BD Bioscience catalog #555190). Controls included unstimulated cells and vehicle alone. EC50 values (50% IL-2 release in the presence of compound as compared to vehicle treated controls) were calculated from dose response compound curves using GraphPad Prism Software.

Row | SMILES | EC50 [1] [µM] | EC50 (Human PBMCs) [µM]
1 | C=CC(=O)Nc1cccc(-n2c(NC(=O)c3ccc(C(F)F)s3)nc3cc(CN[C@H]4CC[C@@H](OCCOC)CC4)ccc32)c1 [Compound 60] | – | < 0.01
2 | C=CC(=O)Nc1cccc(-n2c(NC(=O)c3ccc(OCc4ccccc4)cc3)nc3cc(CN[C@@H](C)C(C)(C)C)ccc32)c1 [Compound 37] | > 0.1 | > 0.1
3 | C=CC(=O)Nc1cccc(-n2c(NC(=O)c3ccc(C(F)F)s3)nc3cc(OCc4ccccc4)ccc32)c1 [Compound 79] | – | > 0.1
4 | C/C=C/C(=O)Nc1cccc(-n2c(NC(=O)c3ccc(C(F)F)s3)nc3cc(CN[C@@H](C)C(C)(C)C)ccc32)c1 [Compound 83] | – | > 0.1
5 | C=CC(=O)N[C@H]1C[C@@H](n2c(NC(=O)c3ccc(C(F)F)s3)nc3cc(N(C)C(=O)C4CCCCC4)ccc32)C1 [Compound 63] | – | > 0.1
6 | C=CC(=O)Nc1cccc(-n2c(NC(=O)c3ccc(C(F)F)s3)nc3cc(CN4CCC[C@H]4CO)ccc32)c1 [Compound 45] | – | < 0.01
7 | C=CC(=O)Nc1cccc(-n2c(NC(=O)c3ccc(C(F)F)s3)nc3cc(CN[C@H](CO)C(C)(C)C)ccc32)c1 [Compound 47] | – | < 0.01
8 | C=CC(=O)Nc1cccc(-n2c(NC(=O)c3ccc(C(F)F)s3)nc3cc(CNCCCOCCOCCCNC(C)=O)ccc32)c1 [Compound 66] | – | 0.01 to 0.1
9 | C=CC(=O)Nc1cccc(-n2c(NC(=O)c3ccc(C(F)F)s3)nc3cc(CNCCOCCOC)ccc32)c1 [Compound 46] | – | 0.01 to 0.1
10 | C=CC(=O)N[C@H]1C[C@@H](n2c(NC(=O)c3ccc(C(F)F)s3)nc3cc(C(=O)NC4CCCCC4)ccc32)C1 [Compound 70] | – | > 0.1
11 | C=CC(=O)N1CCc2ccc(-n3c(NC(=O)c4ccc(C(F)F)s4)nc4cc(CN[C@@H](C)C(C)(C)C)ccc43)cc21 [Compound 56] | – | 0.01 to 0.1
12 | C=CC(=O)Nc1cccc(-n2c(NC(=O)c3cncnc3)nc3cc(CN[C@@H](C)C(C)(C)C)ccc32)c1 [Compound 41] | < 0.01 | 0.01 to 0.1
13 | C=CC(=O)Nc1cccc(-n2c(NC(=O)c3ccno3)nc3cc(CN[C@H]4CC[C@H](O)CC4)ccc32)c1 [Compound 74] | – | > 0.1
14 | C=CC(=O)Nc1cccc(-n2c(NC(=O)c3ccc(C(F)F)s3)nc3cc(CN4CCC[C@@H]4CO)ccc32)c1 [Compound 44] | – | < 0.01
15 | C=CC(=O)N(C)[C@H]1CC[C@@H](n2c(NC(=O)c3ccc(C(F)F)s3)nc3cc(CN[C@@H](C)C(C)(C)C)ccc32)CC1 [Compound 58] | – | > 0.1
16 | C=CC(=O)Nc1cccc(-n2c(NC(=O)c3ccc(C(F)F)s3)nc3cc(CN[C@H]4CC[C@H](OCCOC)CC4)ccc32)c1 [Compound 51] | – | < 0.01
17 | C=CC(=O)N[C@H]1CC[C@@H](n2c(NC(=O)c3ccns3)nc3cc(CN[C@@H](C)C(C)(C)C)ccc32)CC1 [Compound 67] | 0.01 to 0.1 | > 0.1
18 | C=CC(=O)N[C@H]1C[C@@H](n2c(NC(=O)c3ccc(C(F)F)s3)nc3cc(C(=O)N(C)C4CCCCC4)ccc32)C1 [Compound 65] | – | > 0.1
19 | C=CC(=O)Nc1cccc(-n2c(NC(=O)c3cnn(C)c3)nc3cc(CN[C@@H](C)C(C)(C)C)ccc32)c1 [Compound 49] | – | > 0.1
20 | C=CC(=O)N[C@H]1CC[C@@H](n2c(NC(=O)c3cccnc3)nc3cc(CN[C@@H](C)C(C)(C)C)ccc32)CC1 [Compound 55] | – | > 0.1
21 | C=CC(=O)Nc1cccc(-n2c(NC(=O)c3ccns3)nc3cc(CN4CCOCC4)ccc32)c1 [Compound 73] | < 0.01 | 0.01 to 0.1
22 | C=CC(=O)Nc1cccc(-n2c(NC(=O)c3ccns3)nc3cc(CN[C@H]4CC[C@H](O)CC4)ccc32)c1 [Compound 75] | – | > 0.1
23 | C=CC(=O)N[C@H]1CC[C@@H](n2c(NC(=O)c3ccc(-c4cnco4)s3)nc3cc(CN[C@@H](C)C(C)(C)C)ccc32)CC1 [Compound 71] | – | 0.01 to 0.1
24 | C=CC(=O)Nc1cccc(-n2c(NC(=O)c3ccc(C(F)F)s3)nc3cc(C(=O)NC4CCCCC4)ccc32)c1 [Compound 53] | – | 0.01 to 0.1
25 | C=CC(=O)Nc1cccc(-n2c(NC(=O)c3ccc(C(F)F)s3)nc3cc(CN4C[C@@H](C)O[C@@H](C)C4)ccc32)c1 [Compound 61] | – | < 0.01
26 | C=CC(=O)Nc1cccc(-n2c(NC(=O)c3ccc(C(F)F)s3)nc3cc(C(=O)N(C)C4CCCCC4)ccc32)c1 [Compound 48] | – | 0.01 to 0.1
27 | C=CC(=O)Nc1cccc(-n2c(NC(=O)c3ccc(C(F)F)s3)nc3cc(CO)ccc32)c1 [Compound 69] | – | 0.01 to 0.1
28 | C=CC(=O)N[C@H]1C[C@@H](n2c(NC(=O)c3ccc(C(F)F)s3)nc3cc(NC(=O)C4CCCCC4)ccc32)C1 [Compound 64] | – | > 0.1

Now from value to compound, other results behind:

Row | EC50 [1] [µM] | SMILES | EC50 (Human PBMCs) [µM]
29 | 0.01 to 0.1 | C=CC(=O)Nc1cccc(-n2c(NC(=O)c3ccc(C(F)F)s3)nc3cc(N(C)S(C)(=O)=O)ccc32)c1 [Compound 80] | 0.01 to 0.1
30 | < 0.01 | C=CC(=O)Nc1cccc(-n2c(NC(=O)c3ccc(C(F)F)s3)nc3cc(CNCC(C)(C)CO)ccc32)c1 [Compound 29] | < 0.01
31 | 0.01 to 0.1 | C=CC(=O)Nc1cccc(-n2c(NC(=O)c3cccc(F)c3)nc3cc(CN[C@@H](C)C(C)(C)C)ccc32)c1 [Compound 7] | 0.01 to 0.1
32 | 0.01 to 0.1 | C=CC(=O)Nc1cccc(-n2c(NC(=O)c3ccc(C(F)F)s3)nc3cc(CNCC)ccc32)c1 [Compound 40] | < 0.01
33 | > 0.1 | C=CC(=O)Nc1cc(-n2c(NC(=O)c3ccc(C(F)F)s3)nc3cc(CN[C@@H](C)C(C)(C)C)ccc32)ccc1F [Compound 34] | > 0.1
34 | 0.01 to 0.1 | C=CC(=O)Nc1ccc(-n2c(NC(=O)c3ccc(C(F)F)s3)nc3cc(CN[C@@H](C)C(C)(C)C)ccc32)cc1 [Compound 4] | > 0.1
35 | 0.01 to 0.1 | C[C@H](NCc1ccc2c(c1)nc(NC(=O)c1ccc(C(F)F)s1)n2-c1cccc(NC(=O)/C=C/CN(C)C)c1)C(C)(C)C [Compound 78] | > 0.1
36 | 0.01 to 0.1 | C=CC(=O)Nc1cccc(-n2c(NC(=O)c3ccc(C(F)F)s3)nc3cc(CN[C@H](C)C(C)(C)C)ccc32)c1 [Compound 30] | < 0.01
37 | < 0.01 | C=CC(=O)N(C)c1cccc(-n2c(NC(=O)c3ccc(C(F)F)s3)nc3cc(CN[C@@H](C)C(C)(C)C)ccc32)c1 [Compound 5] | 0.01 to 0.1
38 | 0.01 to 0.1 | C=CC(=O)N1CCOc2ccc(-n3c(NC(=O)c4ccc(C(F)F)s4)nc4cc(CN[C@@H](C)C(C)(C)C)ccc43)cc21 [Compound 57] | 0.01 to 0.1
39 | < 0.01 | C=CC(=O)Nc1cccc(-n2c(NC(=O)c3ccc(C(F)F)s3)nc3cc(CNCC(C)(C)C)ccc32)c1 [Compound 23] | < 0.01
40 | 0.01 to 0.1 | C=CC(=O)Nc1cccc(-n2c(NC(=O)c3cccc(OC)c3)nc3cc(CN[C@@H](C)C(C)(C)C)ccc32)c1 [Compound 8] | > 0.1
41 | < 0.01 | C=CC(=O)Nc1cccc(-n2c(NC(=O)c3ccc(C(F)F)s3)nc3cc(CN4CCN(CCO)CC4)ccc32)c1 [Compound 59] | < 0.01
42 | 0.01 to 0.1 | C=CC(=O)Nc1cccc(-n2c(NC(=O)c3ccc(Cl)cc3)nc3cc(CN[C@@H](C)C(C)(C)C)ccc32)c1 [Compound 10] | 0.01 to 0.1
43 | < 0.01 | C=CC(=O)Nc1cccc(-n2c(NC(=O)c3ccc(C(F)F)s3)nc3cc(CN[C@@H](CO)C(C)(C)C)ccc32)c1 [Compound 22] | < 0.01
44 | < 0.01 | C=CC(=O)Nc1ccc(F)c(-n2c(NC(=O)c3ccc(C(F)F)s3)nc3cc(CN[C@@H](C)C(C)(C)C)ccc32)c1 [Compound 33] | < 0.01
45 | 0.01 to 0.1 | CC#CC(=O)Nc1cccc(-n2c(NC(=O)c3ccc(C(F)F)s3)nc3cc(CN[C@@H](C)C(C)(C)C)ccc32)c1 [Compound 72] | > 0.1
46 | < 0.01 | C=CC(=O)Nc1cccc(-n2c(NC(=O)c3ccc(C(F)F)s3)nc3cc(CN4CCCC4)ccc32)c1 [Compound 32] | < 0.01
47 | > 0.1 | C=CC(=O)Nc1cccc(-n2c(NC(=O)c3ccc(OC)cc3)nc3cc(CN[C@@H](C)C(C)(C)C)ccc32)c1 [Compound 24] | > 0.1
48 | 0.01 to 0.1 | C=CC(=O)Nc1cccc(-n2c(NC(=O)c3cccc(O)c3)nc3cc(CN[C@@H](C)C(C)(C)C)ccc32)c1 [Compound 26] | > 0.1
49 | 0.01 to 0.1 | C=CC(=O)Nc1cccc(-n2c(NC(=O)c3ccc(C(F)F)s3)nc3cc(CNCCCO)ccc32)c1 [Compound 39] | < 0.01
50 | 0.01 to 0.1 | C=CC(=O)Nc1cccc(-n2c(NC(=O)c3cnc(C(C)C)s3)nc3cc(CN[C@@H](C)C(C)(C)C)ccc32)c1 [Compound 82] | –
